“Also recorded” adds a separate entry of the source.
How the values were obtained:
Format in all cases: cell-based
[1] = test system: H4 cell lines (GL-H4) expressing GFP-linked LC3; experiment: Analysis of autophagic flow blocked by bafilomycin A-1 (LC3-GFP spots); conditions: bafilomycin (Baf A1) 100 nM alone, GL-H4 cells
Method: FIGS. 2A to 2C are series of fluorescence micrographs of LC3-GFP spots 12 h after treating H4 cell line (GL-H4) that stably overexpresses GFP-LC3 protein with various variant alloferon peptides according to one embodiment of the present invention in combination with bafilomycin at a concentration of 20 μM, showing that autophagic flux blocked by bafilomycin A-1 is restored by the variant alloferon peptides according to one embodiment of the present invention. FIGS. 2D to 2F are graphs showing quantification of the fluorescence intensity of LC3-GFP spots 12 h after treatment of the GL-H4 cell line with the variant alloferon peptides according to one embodiment of the present invention in combination with bafilomycin at a concentration of 20 μM.
H4 cell line (GL-H4) and HEK293T cell line permanently transfected with GFP-LC3 plasmid were used in the present invention. The cell culture medium was Minimum Essential Medium (MEM, WellGene) supplemented with 10% fetal bovine serum (Hyclone, USA) and antibiotic and antifungal mixture (WellGene, Korea) and cultured in a cell culture machine at 37° C. and 5% CO2.
To investigate the effect of peptides comprising the amino acid sequences designated as SEQ ID NO: 3 to 16 on autophagic flow, the present inventors treated H4 cell lines (GL-H4) expressing GFP-linked LC3 with the peptides (20 μM) and/or the autophagic inhibitor Bafilomycin A-1 (Baf A1, 100 nM) to inhibit autophagy, and then the effect of the variant alloferon peptides according to one embodiment of the present invention was investigated by fluorescence microscopy analysis.

[2] = test system: EGFP-Tau P301L aggregates in HEK293T cell line; experiment: Mutant tau protein aggregates after overexpression, Western blot; conditions: bafilomycin 100 nM alone compared to control
Method: FIG. 4A is a result of Western blot analysis of the level of tau protein expression in protein samples obtained 18 h after treatment of HEK293T cells transfected to express tau protein with 100 nM bafilomycin A1 alone or in combination with 30 μM of some variant alloferon peptides according to one embodiment of the present invention, for investigating the degradation of tau protein aggregates by treatment with some variant alloferon peptides (DALS1, DAL-VS_V(−Q), DAL1, and DALV2) according to one embodiment of the present invention. FIG. 4B is a graph representing the results of quantifying relative expression of the tau protein. […]
The present inventors then investigated whether some of the variant peptides (DALS1, DALVS_V, DAL1, DALV2) comprising the amino acid sequences designated as SEQ ID NO: 3 through 16 could resolve SOD1 aggregates that formed after transient transfection of SOD1 protein into the 293T cell line. […] Then, it was subjected to protein quantification using BCA protein assay kit (Pierce Biotechnology, USA), and centrifuged at 17,000×g for 20 min, where the supernant was discarded and only the cell debris was taken to obtain protein. Subsequently, 5× sample buffer (300 mM Tris, pH 6.8, 10% SDS, 50% Glycerol, 0.1% BPB, 2.5% Mercaptoethanol, 100 mM DTT) was mixed with the quantified sample, denatured at 95° C. for 5 min, and prepared for analysis. […]

[3] = test system: EGFP-α-synuclein A53T aggregates in HEK293T cell line; experiment: α-synuclein protein aggregates after overexpression, Western blot; conditions: bafilomycin 100 nM alone compared to the control
Method: (§1) FIG. 5 is a result of Western blot analysis of the level of α-synuclein protein expression in protein samples obtained 18 h after treatment of HEK293T cells transfected to express α-synuclein with 100 nM bafilomycin A1 alone or in combination with 30 µM of some variant alloferon peptides according to one embodiment of the present invention, for investigating the degradation of α-synuclein protein aggregates by treatment with some variant alloferon peptides (DALS1, DAL-VS_V(−Q), DAL1, and DALV2) according to one embodiment of the present invention.
(§2) The present inventors then investigated whether some of the variant peptides (DALS1, DALVS_V, DAL1, DALV2) comprising the amino acid sequences designated as SEQ ID NO: 3 through 16 could resolve SOD1 aggregates that formed after transient transfection of SOD1 protein into the 293T cell line. To this end, EGFP-SOD1 G93A DNA was transiently transfected into the HEK293T cell line using Lipofectamine 2000. After transfection, the cell lines were incubated in a cell culture machine at 37° C. and 5% CO2 for 30 h, and the culture medium was replaced with Minimum Essential Medium (MEM, Gibco, USA). Subsequently, the cells were pretreated with 100 nM bafilomycin for 30 min, which were then treated with μM variant alloferon peptide and incubated for 18 h. […] Then, it was subjected to protein quantification using BCA protein assay kit (Pierce Biotechnology, USA), and centrifuged at 17,000×g for 20 min, where the supernant was discarded and only the cell debris was taken to obtain protein. Subsequently, 5× sample buffer (300 mM Tris, pH 6.8, 10% SDS, 50% Glycerol, 0.1% BPB, 2.5% Mercaptoethanol, 100 mM DTT) was mixed with the quantified sample, denatured at 95° C. for 5 min, and prepared for analysis. […] Protein signals were detected using enhanced chemiluminescence (INTRON Biotechnology, South Korea) and a bio-imaging system (MF-Chemibis, Shimadzu Scientific Korea Corporation, South Korea). […]

[4] = test system: GFP-mHttQ74 aggregates in HEK293T cell line; experiment: Mutant huntingtin protein aggregates after overexpression, Western blot; conditions: bafilomycin 100 nM alone compared to the control
Method: as §1, with “FIG. 6” for “FIG. 5”, “of mutant huntingtin” for “of α-synuclein”, “express mutant huntingtin protein” for “express α-synuclein”, “30 μM” for “30 µM”
as §2

[5] = test system: EGFP-SOD1 G93A aggregates in HEK293T cell line; experiment: SOD1 protein aggregates after SOD1 overexpression, Western blot; conditions: bafilomycin 100 nM alone compared to the control
Method: FIG. 3A is a result of Western blot analysis of the level of SOD1 protein expression in protein samples obtained 18 h after treatment of HEK293T cells transfected to express SOD1 with 100 nM bafilomycin A1 alone or in combination with 30 μM of some variant alloferon peptides according to one embodiment of the present invention, for investigating the degradation of SOD1 protein aggregates by treatment with some variant alloferon peptides (DALS1, DAL-VS_V(−Q), DAL1, and DALV2) according to one embodiment of the present invention. FIG. 3B is a graph representing the results of quantifying relative expression of the SOD1 protein. In FIG. 3B, * indicates a significant difference compared to the treatment with bafilomycin alone (* p<0.05).
The present inventors then investigated whether some of the variant peptides (DALS1, DALVS_V, DAL1, DALV2) comprising the amino acid sequences designated as SEQ ID NO: 3 through 16 could resolve SOD1 aggregates that formed after transient transfection of SOD1 protein into the 293T cell line. To this end, EGFP-SOD1 G93A DNA was transiently transfected into the HEK293T cell line using Lipofectamine 2000. After transfection, the cell lines were incubated in a cell culture machine at 37° C. and 5% CO2 for 30 h, and the culture medium was replaced with Minimum Essential Medium (MEM, Gibco, USA). Subsequently, the cells were pretreated with 100 nM bafilomycin for 30 min, which were then treated with μM variant alloferon peptide and incubated for 18 h. After that, proteinase inhibitors and phosphatase inhibitors (2 μg/ml aprotinin, 2 μg/ml leupeptin, 1 μg/ml pepstatin A, 1 mM phenyl-methylsulfonyl fluoride (PMSF), 1 mM Na3 VO4, 5 mM NaF and 10 mM Na4P2O7) were put into a 6-well culture dish at 200 μl per well to lyse the cells. The obtained cell lysate was first left at 30 min for 4° C. Then, it was subjected to protein quantification using BCA protein assay kit (Pierce Biotechnology, USA), and centrifuged at 17,000×g for 20 min, where the supernant was discarded and only the cell debris was taken to obtain protein. Subsequently, 5× sample buffer (300 mM Tris, pH 6.8, 10% SDS, 50% Glycerol, 0.1% BPB, 2.5% Mercaptoethanol, 100 mM DTT) was mixed with the quantified sample, denatured at 95° C. for 5 min, and prepared for analysis. Then, electrophoresis was performed using 8% to 15% SDS-polyacrylamide gel, and the proteins separated by their sizes were transferred to polyvinylidene difluoride (PVDF) membranes (Millipore, USA). The protein-transferred membranes were then blocked with 3% skim milk powder in TBST for 1 h. […] Protein signals were detected using enhanced chemiluminescence (INTRON Biotechnology, South Korea) and a bio-imaging system (MF-Chemibis, Shimadzu Scientific Korea Corporation, South Korea).

With `CO/C1=C\C(C)=C\[C@@H](C)[C@@H](O)[C@@H](C)C/C(C)=C/C=C/[C@H](OC)[C@@H]([C@@H](C)[C@@H](O)[C@H](C)[C@@]2(O)C[C@@H](O)[C@H](C)[C@@H](C(C)C)O2)OC1=O` [bafilomycin, Bafilomycin A-1, reference compound] the “number and size of LC3 spots” value [1] was “significantly increased; also recorded: significant increase in the number and size of LC3 spots”, the “mutant tau protein aggregates” value [2] was “increased” and the α-synuclein protein aggregates [3] was “increased”. For the same molecule, the “mutant huntingtin protein aggregates” value [4] was “increased” and the SOD1 protein aggregates [5] was “increased”.

From US20260217763A1, “Novel Peptide and Use Thereof” (Zincure Corp., priority 2022, published 2026)
